Test in all cases: spray test, herbicidal damage scoring
Holding throughout (format): in vivo

For assay [1], the system named is transgenic tobacco plants expressing mutant HPPD SEQ ID NO: 125. Conditions: Table 4.3, 7 days after treatment, 100=complete death, 0=no damage, one value per event. The procedure:
(§1) DNA sequences that encode these polypeptides (optimized for tobacco or, optionally, codon optimized according to a target crop such as soybean) were prepared synthetically. Each sequence was designed to include a 5′ fusion with TMV omega 5′ leader sequence such that they are flanked at the 5′ end with XhoI and at the 3′ end with KpnI to facilitate direct cloning into a suitable binary vector for Agrobacterium-based plant transformation.
(§2) For example, a master plate of Agrobacterium tumefaciens containing the HPPD expressing the binary vector is used to inoculate 10 ml LB (L broth) containing 100 mg/l Rifampicin plus 50 mg/l Kanamycin using a single bacterial colony. This is incubated overnight at 28° C. shaking at 200 rpm. This entire overnight culture is used to inoculate a 50 ml volume of LB containing the same antibiotics. Again this is cultured overnight at 28° C. shaking at 200 rpm. The Agrobacterium cells are pelleted by centrifuging at 3000 rpm for 15 minutes and then resuspended in MS (Murashige and Skoog) medium containing 30 g/l sucrose, pH 5.9 to an OD […]=0.6. This suspension is dispensed in 25 ml aliquots into petri dishes.
(§3) Once rooted, plantlets are transferred from agar and potted into 50% peat, 50% John Innes Soil No. 3 or, for example, MetroMix® 380 soil (Sun Gro Horticulture, Bellevue, WA) with slow-release fertilizer in 3 inch round or 4 inch square pots and left regularly watered to establish for 8-12d in the glass house. Glass house conditions are about 24-27° C. day; 18-21° C. night and approximately a 14h (or longer in UK summer) photoperiod.
(§4) About 20-30 TO events are produced for a number of HPPD variant genes.
(§5) Single copy events amongst the Ti plant lines are identified by their 3:1 segregation ratio (with respect to kanamycin and/or herbicide) and by quantitative RT-PCR. Seed from the thus selected Ti tobacco (var. Samsun) lines are sown in 3 inch diameter pots containing 50% peat and 50% John Innes Soil No. 3. […] HPPD expression levels were monitored by Western analysis.
(§6) Tables 4.1-4.9 show the herbicidal damage scoring on transgenic tobacco plants 7 days after treatment. A score of 100=complete death and 0=no damage observed.

Assay [2] has as its system transgenic tobacco plants expressing mutant HPPD SEQ ID NO: 124. Conditions: Table 4.2, 7 days after treatment, 100=complete death, 0=no damage, one value per event. The procedure:
as §1, §2, §3, §4, §5, §6

Assay [3] relates to transgenic tobacco plants expressing mutant HPPD SEQ ID NO: 8. The note with it: 2000 g/ha; SEQ ID 8 plants compared to plants expressing SEQ IDs 122, 124 or 125. The procedure:
(§7) Avena sativa HPPD or orthologues and variants thereof, for example SEQ IDs 1-63 and 122-127, were expressed in transgenic tobacco. DNA sequences that encode these polypeptides (optimized for tobacco or, optionally, codon optimized according to a target crop such as soybean) were prepared synthetically. Each sequence was designed to include a 5′ fusion with TMV omega 5′ leader sequence such that they are flanked at the 5′ end with XhoI and at the 3′ end with KpnI to facilitate direct cloning into a suitable binary vector for Agrobacterium-based plant transformation. […]
(§8) Plants are assessed for damage and scored at, for example, 7 and 14 days after treatment (DAT). […]
(§9) Plants of events showing the least damage are grown to flowering, then bagged and allowed to self. […] Single copy events amongst the Ti plant lines are identified by their 3:1 segregation ratio (with respect to kanamycin and/or herbicide) and by quantitative RT-PCR. […] HPPD expression levels were monitored by Western analysis. […]

In assay [4] the test system is transgenic tobacco plants expressing mutant HPPD SEQ ID NO: 21. Conditions: 2000 g/ha; SEQ ID 21 plants compared to plants expressing SEQ IDs 122, 124 or 125. The procedure: as §7, §8, §9

Where “and” joins values, the source holds several entries; their conditions need not be identical. Identical values can stand only once.

Regarding `COc1ccc(-n2nc(C)cc(C(=O)C3C(=O)CCCC3=O)c2=O)cc1OC` [Herbicide C, dioxopyritrione], the “herbicidal damage scoring, Herbicide C (200 g/ha)” value was 60 and 80 and 75 and 85 in assay [1]; 60 and 65 and 50 in assay [2].

As to `Cn1nnnc1NC(=O)c1ccc(C(F)(F)F)nc1-n1cncn1` [Herbicide D, N-(1-methyltetrazol-5-yl)-2-(1,2,4-triazol-1-yl)-6-(trifluoromethyl)pyridine-3-carboxamide], the damage result in assay [3] and in assay [4] was “significantly reduced damage” in each case.

For the origin of these results see patent US20240043860A1, “NOVEL HYDROXYPHENYLPYRUVATE DIOXYGENASE POLYPEPTIDES AND METHODS OF USE THEREOF” (Syngenta Crop Protection AG, priority 2020, published 2024).
